Results reported in US9169254B2, “Spiroimidazolone derivative” (Chugai Seiyaku Kabushiki Kaisha, priority 2009, dated 2015).

Target: T1, human PTH1 receptor (Homo sapiens, UniProt Q03431)
T1 sequence (Q03431 27-593): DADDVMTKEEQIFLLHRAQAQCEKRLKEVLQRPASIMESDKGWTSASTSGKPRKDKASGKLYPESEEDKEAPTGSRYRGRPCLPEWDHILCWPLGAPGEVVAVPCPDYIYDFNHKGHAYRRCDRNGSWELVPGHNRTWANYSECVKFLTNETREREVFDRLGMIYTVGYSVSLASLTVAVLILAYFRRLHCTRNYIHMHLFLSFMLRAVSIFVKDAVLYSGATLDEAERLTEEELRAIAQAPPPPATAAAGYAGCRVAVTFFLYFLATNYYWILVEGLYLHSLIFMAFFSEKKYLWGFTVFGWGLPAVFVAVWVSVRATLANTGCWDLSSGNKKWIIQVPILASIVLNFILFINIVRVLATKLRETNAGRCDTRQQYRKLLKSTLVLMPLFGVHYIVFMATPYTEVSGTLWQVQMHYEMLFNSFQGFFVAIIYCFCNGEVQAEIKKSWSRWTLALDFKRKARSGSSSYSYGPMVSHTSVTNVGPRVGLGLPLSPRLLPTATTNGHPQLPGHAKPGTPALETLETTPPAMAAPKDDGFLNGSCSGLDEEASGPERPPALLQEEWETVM
Test: In vitro cAMP signal activity in HKRK-B7 cells (LLC-PK1 cells overexpressing the human PTH1 receptor)
Assay type: cell-based
Conditions: HKRK-B7 cells; compound at 1×10^−3 M; cAMP produced as percentage of that produced by hPTH(1-34) at 100 nM

Row | cAMP production activity (%) | SMILES
1 | 88% | Cc1cc(C(=O)N2CCC(O)CC2)cc(C)c1CCS(=O)(=O)N1CCC2(CC1)N=C(c1ccc(F)c(C(F)(F)F)c1)NC2=O [Compound 797, 2-(4-fluoro-3-trifluoromethyl-phenyl)-8-{2-[4-(4-hydroxy-piperidine-1-carbonyl)-2,6-dimethyl-phenyl]-ethanesulfonyl}-1,3,8-triaza-spiro[4.5]dec-1-en-4-one]
2 | 7.1% | Cc1cc(N2C(=O)CNC2=O)cc(C)c1CCS(=O)(=O)N1CCC2(CC1)N=C(c1cccc(OC(F)(F)F)c1)NC2=O [Compound 799, 3-(3,5-dimethyl-4-{2-[4-oxo-2-(3-trifluoromethoxy-phenyl)-1,3,8-triaza-spiro[4.5]dec-1-ene-8-sulfonyl]-ethyl}-phenyl)-imidazolidine-2,4-dione]
3 | 77% | Cc1cc(N2C(=O)CNC2=O)cc(C)c1CCS(=O)(=O)N1CCC2(CC1)N=C(c1ccc(F)c(C(F)(F)F)c1)NC2=O [Compound 800, 3-(4-{2-[2-(4-fluoro-3-trifluoromethyl-phenyl)-4-oxo-1,3,8-triaza-spiro[4.5]dec-1-ene-8-sulfonyl]-ethyl}-3,5-dimethyl-phenyl)-imidazolidine-2,4-dione]
4 | 100% | Cc1cc(C(=O)N2CCC(O)(CF)CC2)cc(C)c1CCS(=O)(=O)N1CCC2(CC1)N=C(c1ccc(F)c(C(F)(F)F)c1)NC2=O [Compound 802, 8-{2-[4-(4-fluoromethyl-4-hydroxy-piperidine-1-carbonyl)-2,6-dimethyl-phenyl]-ethanesulfonyl}-2-(4-fluoro-3-trifluoromethyl-phenyl)-1,3,8-triaza-spiro[4.5]dec-1-en-4-one]
5 | 103% | Cc1cc(C(=O)N2CCC(C)(O)CC2)cc(C)c1CCS(=O)(=O)N1CCC2(CC1)N=C(c1ccc(F)c(C(F)(F)F)c1)NC2=O [Compound 803, 2-(4-fluoro-3-trifluoromethyl-phenyl)-8-{2-[4-(4-hydroxy-4-methyl-piperidine-1-carbonyl)-2,6-dimethyl-phenyl]-ethanesulfonyl}-1,3,8-triaza-spiro[4.5]dec-1-en-4-one]
6 | 78% | Cc1cc(C(=O)N2CCC3(CC2)COC3)cc(C)c1CCS(=O)(=O)N1CCC2(CC1)N=C(c1ccc(F)c(C(F)(F)F)c1)NC2=O [Compound 804, 8-{2-[2,6-dimethyl-4-(2-oxa-7-aza-spiro[3.5]nonane-7-carbonyl)-phenyl]-ethanesulfonyl}-2-(4-fluoro-3-trifluoromethyl-phenyl)-1,3,8-triaza-spiro[4.5]dec-1-en-4-one]
7 | 105% | CC(=O)Nc1ccc(CCS(=O)(=O)N2CCC3(CC2)N=C(C2CCC(C)CC2)NC3=O)c(OC(C)C)c1 (stereo not drawn) [Compound 812, N-(3-isopropoxy-4-{2-[2-(4-methyl-cyclohexyl)-4-oxo-1,3,8-triaza-spiro[4.5]dec-1-ene-8-sulfonyl]-ethyl}-phenyl)-acetamide]
8 | 111% | CCCCCCCCCC1=NC2(CCN(S(=O)(=O)CCc3c(C)cc(N(C)C(N)=O)cc3C)CC2)C(=O)N1 [Compound 817, 1-{3,5-dimethyl-4-[2-(2-nonyl-4-oxo-1,3,8-triaza-spiro[4.5]dec-1-ene-8-sulfonyl)-ethyl]-phenyl}-1-methyl-urea]
9 | 79% | Cc1cc(N(CCF)C(N)=O)cc(C)c1CCS(=O)(=O)N1CCC2(CC1)N=C(C1CCC(CCC(F)(F)F)CC1)NC2=O (stereo not drawn) [Compound 818, 1-[3,5-dimethyl-4-(2-{4-oxo-2-[4-(3,3,3-trifluoro-propyl)-cyclohexyl]-1,3,8-triaza-spiro[4.5]dec-1-ene-8-sulfonyl}-ethyl)-phenyl]-1-(2-fluoro-ethyl)-urea]
10 | 98% | CC(=O)N(CCOCCO)c1cc(C)c(CCS(=O)(=O)N2CCC3(CC2)N=C(C2CCC(CCC(F)(F)F)CC2)NC3=O)c(C)c1 (stereo not drawn) [Compound 820, N-[3,5-dimethyl-4-(2-{4-oxo-2-[4-(3,3,3-trifluoro-propyl)-cyclohexyl]-1,3,8-triaza-spiro[4.5]dec-1-ene-8-sulfonyl}-ethyl)-phenyl]-N-[2-(2-hydroxy-ethoxy)-ethyl]-acetamide]
11 | 82% | Cc1cc(OC[C@H](O)CO)cc(C)c1CCS(=O)(=O)N1CCC2(CC1)N=C(C1CCC(CCC(F)(F)F)CC1)NC2=O (stereo partly drawn) [Compound 821, 8-{2-[4-((R)-2,3-dihydroxy-propoxy)-2,6-dimethyl-phenyl]-ethanesulfonyl}-2-[4-(3,3,3-trifluoro-propyl)-cyclohexyl]-1,3,8-triaza-spiro[4.5]dec-1-en-4-one]
12 | 99% | O=C1NC(C2CCC(CCC(F)(F)F)CC2)=NC12CCN(S(=O)(=O)CCc1cccc3c1ccn3CCOC[C@@H](O)CO)CC2 (stereo partly drawn) [Compound 822, 8-(2-{1-[2-((S)-2,3-dihydroxy-propoxy)-ethyl]-1H-indol-4-yl}-ethanesulfonyl)-2-[4-(3,3,3-trifluoro-propyl)-cyclohexyl]-1,3,8-triaza-spiro[4.5]dec-1-en-4-one]
13 | 140% | CC(=O)N(C[C@H](O)CO)c1cc(C)c(CCS(=O)(=O)N2CCC3(CC2)N=C(CCCCCCCCC(F)(F)F)NC3=O)c(C)c1 [Compound 824, N—((S)-2,3-dihydroxy-propyl)-N-(3,5-dimethyl-4-{2-[4-oxo-2-(9,9,9-trifluoro-nonyl)-1,3,8-triaza-spiro[4.5]dec-1-ene-8-sulfonyl]-ethyl}-phenyl)-acetamide]
14 | 114% | CCCCCCCCCC1=NC2(CCN(S(=O)(=O)CCc3ccc(N(CCOCCO)C(C)=O)cc3C)CC2)C(=O)N1 [Compound 825, N-[2-(2-hydroxy-ethoxy)-ethyl]-N-{3-methyl-4-[2-(2-nonyl-4-oxo-1,3,8-triaza-spiro[4.5]dec-1-ene-8-sulfonyl)-ethyl]-phenyl}-acetamide]
15 | 90% | Cc1cc(N(CCOCCO)C(N)=O)cc(C)c1CCS(=O)(=O)N1CCC2(CC1)N=C(C1CCC(CCC(F)(F)F)CC1)NC2=O (stereo not drawn) [Compound 826, 1-[3,5-dimethyl-4-(2-{4-oxo-2-[4-(3,3,3-trifluoro-propyl)-cyclohexyl]-1,3,8-triaza-spiro[4.5]dec-1-ene-8-sulfonyl}-ethyl)-phenyl]-1-[2-(2-hydroxy-ethoxy)-ethyl]-urea]

Row | SMILES | cAMP production activity (%)
16 | CCCCCCCCCC1=NC2(CCN(S(=O)(=O)CCc3c(C)cc(OCCC(O)CO)cc3C)CC2)C(=O)N1 (stereo not drawn) [Compound 798, 8-{2-[4-(3,4-dihydroxy-butoxy)-2,6-dimethyl-phenyl]-ethanesulfonyl}-2-nonyl-1,3,8-triaza-spiro[4.5]dec-1-en-4-one] | 101%
17 | Cc1cc(OCCC(O)CO)cc(C)c1CCS(=O)(=O)N1CCC2(CC1)N=C(c1ccc(F)c(C(F)(F)F)c1)NC2=O (stereo not drawn) [Compound 801, 8-{2-[4-(3,4-dihydroxy-butoxy)-2,6-dimethyl-phenyl]-ethanesulfonyl}-2-(4-fluoro-3-trifluoromethyl-phenyl)-1,3,8-triaza-spiro[4.5]dec-1-en-4-one] | 103%
18 | O=C1NC(C2CCC(CCC(F)(F)F)CC2)=NC12CCN(S(=O)(=O)CCc1cccc3c1ccn3CCOC[C@H](O)[C@@H](O)CO)CC2 (stereo partly drawn) [Compound 823, 2-[4-(3,3,3-trifluoro-propyl)-cyclohexyl]-8-(2-{1-[2-((2S,3S)-2,3,4-trihydroxy-butoxy)-ethyl]-1H-indol-4-yl}-ethanesulfonyl)-1,3,8-triaza-spiro[4.5]dec-1-en-4-one] | 103%
